# In patent US9216968B2, “Heterocyclic derivative and pharmaceutical drug” (NIPPON SHINYAKU CO., LTD., priority 2011, dated 2015):
# Where a name gives a salt, the structure may show the parent alone.
# Legend:
# human mPGES-1 = human mPGES-1 (Homo sapiens (Human), UniProt O14684); experiment: mPGES-1 inhibiting activity (microsome fractions, PGE2 by HTRF); assay type: biochemical; details: microsomes from CHO-K1 cells transfected with human mPGES-1; PGH2 1 μM, 4° C., 60 seconds; read-out: mPGES-1 Inhibition IC50
# Outline: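 PGE2 formation read by HTRF after 60 s at 4 °C with 1 μM PGH2 substrate, following 20 min compound preincubation (1% DMSO) with human mPGES-1 microsomes from transfected CHO-K1 cells. Buffer: potassium phosphate, reduced glutathione, pH 7.4; IC50 from activity relative to enzyme-free blank.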
# A549 cells = experiment: Inhibition of PGE2 production in A549 cell (IL-1β stimulated); assay type: cell-based, human; details: Homo sapiens, A549, 24 h, IL-1β 5 ng/well, PGE2 in culture medium
# Outline: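 A549 cells preincubated 60 min with compound in RPMI/3% FBS (final DMSO 0.10), then stimulated with IL-1β (5 ng/well) for 24 h at 37 °C. PGE2 measured by HTRF and PGF2α by EIA in medium; IC50 from inhibition relative to stimulated minus unstimulated production.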
# Chain of human mPGES-1 (O14684 whole entry): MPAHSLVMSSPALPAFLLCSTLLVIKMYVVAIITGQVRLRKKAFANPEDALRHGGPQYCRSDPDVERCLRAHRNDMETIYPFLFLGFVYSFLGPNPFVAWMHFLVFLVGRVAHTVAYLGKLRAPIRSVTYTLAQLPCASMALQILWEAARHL
SMILES,IC50 (human mPGES-1),IC50 (A549 cells)
"COCCOCc1nc2c(C(=O)Nc3cccc(Cl)c3C)cc(NC(=O)c3ccccc3C(F)(F)F)cc2[nH]1 [Example 74, N-(3-Chloro-2-methylphenyl)-2-[(2-methoxyethoxy)methyl]-6-({[2-(trifluoromethyl)phenyl]carbonyl}amino)-1H-benzimidazole-4-carboxamide hydrochloride]",0.0713 µM,0.0104 µM
"COCC(C)(C)c1nc2c(C(=O)Nc3cccc(Cl)c3C)cc(NC(=O)c3ccccc3C(F)(F)F)cc2[nH]1 [Example 75, N-(3-Chloro-2-methylphenyl)-2-(1-methoxy-2-methylpropan-2-yl)-6-({[2-(trifluoromethyl)phenyl]carbonyl}amino)-1H-benzimidazole-4-carboxamide hydrochloride]",0.0317 µM,0.0197 µM
"CC(C)(C)c1nc2c(C(=O)NCc3ncccc3C(F)(F)F)cc(NC(=O)c3ccccc3C(F)(F)F)cc2[nH]1 [Example 77, 2-tert-Butyl-6-({[2-(trifluoromethyl)phenyl]carbonyl}amino)-N-{[3-(trifluoromethyl)pyridin-2-yl]methyl}-1H-benzimidazole-4-carboxamide dihydrochloride]",0.0017 µM,0.0329 µM
"CCOCCc1nc2c(C(=O)Nc3cccc(Cl)c3C)cc(NC(=O)c3ccccc3C(F)(F)F)cc2[nH]1 [Example 78, N-(3-Chloro-2-methylphenyl)-2-(2-ethoxyethyl)-6-({[2-(trifluoromethyl)phenyl]carbonyl}amino)-1H-benzimidazole-4-carboxamide hydrochloride]",0.0968 µM,0.177 µM
"CCOCc1nc2c(C(=O)Nc3cccc(Cl)c3C)cc(NC(=O)c3ccccc3C(F)(F)F)cc2[nH]1 [Example 79, N-(3-Chloro-2-methylphenyl)-2-(ethoxymethyl)-6-({[2-(trifluoromethyl)phenyl]carbonyl}amino)-1H-benzimidazole-4-carboxamide hydrochloride]",0.015 µM,0.285 µM
"CCOCc1nc2c(C(=O)NCc3ncccc3C(F)(F)F)cc(NC(=O)c3ccccc3C(F)(F)F)cc2[nH]1 [Example 80, 2-(Ethoxymethyl)-6-({[2-(trifluoromethyl)phenyl]carbonyl}amino)-N-{[3-(trifluoromethyl)pyridin-2-yl]methyl}-1H-benzimidazole-4-carboxamide dihydrochloride]",0.0294 µM,1.25 µM
"Cc1c(Cl)cccc1NC(=O)c1cc(NC(=O)c2ccccc2C(F)(F)F)cc2[nH]c(C3CC3)nc12 [Example 83, N-(3-Chloro-2-methylphenyl)-2-cyclopropyl-6-({[2-(trifluoromethyl)phenyl]carbonyl}amino)-1H-benzimidazole-4-carboxamide hydrochloride]",0.0098 µM,0.0165 µM
"Cc1ccc(NC(=O)c2cc(NC(=O)c3cc(Cl)ccc3Cl)cc3[nH]c(C(C)(C)C)nc23)cc1Cl [Example 88, 2-tert-Butyl-N-(3-chloro-4-methylphenyl)-6-{[(2,5-dichlorophenyl)carbonyl]amino}-1H-benzimidazole-4-carboxamide hydrochloride]",0.0151 µM,0.0092 µM
"COCc1nc2c(C(=O)Nc3cccc(Cl)c3C)cc(NC(=O)c3ccccc3C(F)(F)F)cc2n1C [Example 90, N-(3-Chloro-2-methylphenyl)-2-(methoxymethyl)-1-methyl-6-({[2-(trifluoromethyl)phenyl]carbonyl}amino)-1H-benzimidazole-4-carboxamide]",0.118 µM,0.348 µM
"COCc1nc2c(C(=O)Nc3cccc(Cl)c3C)cc(NC(=O)c3c(F)cccc3Cl)cc2[nH]1 [Example 92, 6-{[(2-Chloro-6-fluorophenyl)carbonyl]amino}-N-(3-chloro-2-methylphenyl)-2-(methoxymethyl)-1H-benzimidazole-4-carboxamide hydrochloride]",0.0067 µM,0.0322 µM
"COCc1nc2c(C(=O)Nc3cccc(Cl)c3C)cc(NC(=O)c3cc(F)ccc3Cl)cc2[nH]1 [Example 94, 6-{[(2-Chloro-5-fluorophenyl)carbonyl]amino}-N-(3-chloro-2-methylphenyl)-2-(methoxymethyl)-1H-benzimidazole-4-carboxamide hydrochloride]",0.0091 µM,0.182 µM
"COCc1nc2c(C(=O)Nc3cccc(Cl)c3C)cc(NC(=O)c3cccnc3Cl)cc2[nH]1 [Example 96, N-(3-Chloro-2-methylphenyl)-6-{[(2-chloropyridin-3-yl)carbonyl]amino}-2-(methoxymethyl)-1H-benzimidazole-4-carboxamide hydrochloride]",0.034 µM,0.126 µM
"COCc1nc2c(C(=O)Nc3cccc(Cl)c3C)cc(NC(=O)c3ccccc3Br)cc2[nH]1 [Example 97, 6-{[(2-Bromophenyl)carbonyl]amino}-N-(3-chloro-2-methylphenyl)-2-(methoxymethyl)-1H-benzimidazole-4-carboxamide hydrochloride]",0.0061 µM,0.0431 µM
"COCc1nc2c(C(=O)Nc3cccc(Cl)c3C)cc(NC(=O)c3c(Cl)cccc3Cl)cc2[nH]1 [Example 98, N-(3-Chloro-2-methylphenyl)-6-{[(2,6-dichlorophenyl)carbonyl]amino}-2-(methoxymethyl)-1H-benzimidazole-4-carboxamide hydrochloride]",0.006 µM,0.0119 µM

# Now from value to molecule:
IC50 (human mPGES-1),IC50 (A549 cells),SMILES
0.0002 µM,0.0055 µM,"Cc1c(Cl)cccc1NC(=O)c1cc(NC(=O)c2ccccc2C(F)(F)F)cc2[nH]c(C(C)(C)C)nc12 [Example 76, 2-tert-Butyl-N-(3-chloro-2-methylphenyl)-6-({[2-(trifluoromethyl)phenyl]carbonyl}amino)-1H-benzimidazole-4-carboxamide hydrochloride]"
0.005 µM,0.405 µM,"COCCc1nc2c(C(=O)Nc3cccc(Cl)c3C)cc(NC(=O)c3ccccc3C(F)(F)F)cc2[nH]1 [Example 81, N-(3-Chloro-2-methylphenyl)-2-(2-methoxyethyl)-6-({[2-(trifluoromethyl)phenyl]carbonyl}amino)-1H-benzimidazole-4-carboxamide hydrochloride]"
0.0004 µM,0.0063 µM,"Cc1c(Cl)cccc1NC(=O)c1cc(NC(=O)c2ccccc2C(F)(F)F)cc2[nH]c(CC(C)(C)C)nc12 [Example 82, N-(3-Chloro-2-methylphenyl)-2-(2,2-dimethylpropyl)-6-({[2-(trifluoromethyl)phenyl]carbonyl}amino)-1H-benzimidazole-4-carboxamide hydrochloride]"
0.0008 µM,0.0065 µM,"CCCC(C)(C)c1nc2c(C(=O)Nc3cccc(Cl)c3C)cc(NC(=O)c3ccccc3C(F)(F)F)cc2[nH]1 [Example 84, N-(3-Chloro-2-methylphenyl)-2-(2-methylpentan-2-yl)-6-({[2-(trifluoromethyl)phenyl]carbonyl}amino)-1H-benzimidazole-4-carboxamide hydrochloride]"
0.0005 µM,0.0037 µM,"Cc1c(Cl)cccc1NC(=O)c1cc(NC(=O)c2ccccc2C(F)(F)F)cc2[nH]c(C3(C)CC3)nc12 [Example 85, N-(3-chloro-2-methylphenyl)-2-(1-methylcyclopropyl)-6-({[2-(trifluoromethyl)phenyl]carbonyl}amino)-1H-benzimidazole-4-carboxamide]"
0.001 µM,0.0051 µM,"Cc1ccc(NC(=O)c2cc(NC(=O)c3ccccc3C(F)(F)F)cc3[nH]c(C(C)(C)C)nc23)cc1Cl [Example 86, 2-tert-Butyl-N-(3-chloro-4-methylphenyl)-6-({[2-(trifluoromethyl)phenyl]carbonyl}amino)-1H-benzimidazole-4-carboxamide hydrochloride]"
0.0057 µM,0.0069 µM,"Cc1c(Cl)cccc1NC(=O)c1cc(NC(=O)c2cc(Cl)ccc2Cl)cc2[nH]c(C(C)(C)C)nc12 [Example 87, 2-tert-Butyl-N-(3-chloro-2-methylphenyl)-6-{[(2,5-dichlorophenyl)carbonyl]amino}-1H-benzimidazole-4-carboxamide hydrochloride]"
0.0012 µM,0.0021 µM,"Cc1c(Cl)cccc1NC(=O)c1cc(NC(=O)c2ccccc2C(F)(F)F)cc2[nH]c(C3(C(F)(F)F)CC3)nc12 [Example 89, N-(3-Chloro-2-methylphenyl)-2-[1-(trifluoromethyl)cyclopropyl]-6-({[2-(trifluoromethyl)phenyl]carbonyl}amino)-1H-benzimidazole-4-carboxamide]"
0.0042 µM,0.153 µM,"COCc1nc2c(C(=O)Nc3cccc(Cl)c3C)cc(NC(=O)c3ccc(F)cc3Cl)cc2[nH]1 [Example 93, 6-{[(2-Chloro-4-fluorophenyl)carbonyl]amino}-N-(3-chloro-2-methylphenyl)-2-methoxymethyl-1H-benzimidazole-4-carboxamide hydrochloride]"
0.0051 µM,0.105 µM,"COCc1nc2c(C(=O)Nc3cccc(Cl)c3C)cc(NC(=O)c3ccccc3Cl)cc2[nH]1 [Example 95, N-(3-Chloro-2-methylphenyl)-6-{[(2-chlorophenyl)carbonyl]amino}-2-(methoxymethyl)-1H-benzimidazole-4-carboxamide hydrochloride]"
0.0037 µM,0.0189 µM,"COCc1nc2c(C(=O)Nc3cccc(Cl)c3C)cc(NC(=O)c3cc(Cl)ccc3Cl)cc2[nH]1 [Example 99, N-(3-Chloro-2-methylphenyl)-6-{[(2,5-dichlorophenyl)carbonyl]amino}-2-(methoxymethyl)-1H-benzimidazole-4-carboxamide hydrochloride]"
